{"source": "PubChem BioAssay AID330", "about": "(DTP/NCI, 2004)", "system": "P388 leukemia ip, CD2F1 mice, survival T/C", "assay": "NCI In Vivo Anticancer Drug Screen. Data for tumor model P388 Leukemia (intraperitoneal) in CD2F1 (CDF1) mice", "settings": "endpoint: median survival time, higher = longer survival", "in_short": "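Mice carrying the transplanted tumor received test compound or vehicle. Survival was recorded in each group, and the value is the treated-group measurement divided by that of the vehicle-treated control group.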", "key": {"[1]": {"settings": "dose: 50.0 mg/kg/injection, schedule: Q01DX009 (ip), vehicle: saline with Tween-80"}, "[2]": {"settings": "dose: 100.0 mg/kg/injection, schedule: Q01DX009 (ip), vehicle: saline with Tween-80"}, "[3]": {"settings": "dose: 200.0 mg/kg/injection, schedule: Q01DX009 (ip), vehicle: saline with Tween-80"}, "[4]": {"settings": "dose: 100.0 mg/kg/injection, schedule: Q04DX003 (ip), vehicle: saline with Tween-80"}, "[5]": {"settings": "dose: 200.0 mg/kg/injection, schedule: Q04DX003 (ip), vehicle: saline with Tween-80"}, "[6]": {"settings": "dose: 100.0 mg/kg/injection, schedule: Q01DX001 (ip), vehicle: saline with Tween-80"}, "[7]": {"settings": "dose: 200.0 mg/kg/injection, schedule: Q01DX001 (ip), vehicle: saline with Tween-80"}}, "note": "“And” between values parts separate entries of the source, which are not always exact repeats. Equal entries are not always repeated. Inconclusive results and toxic doses are left out."}
{"smiles": "C/C=C(\\C)C(=O)OC1C2C(C)=CC(=O)C(O)C2(C)C2C3(O)OCC24C1OC(=O)C(O)C4C(C)C3O", "note": "(stereo unspecified)", "values": [{"measurement": "T/C", "setting": "dose: 2.5 mg/kg/injection, schedule: Q01DX005 (ip), vehicle: saline", "value": "154 % of control"}, {"measurement": "T/C", "setting": "dose: 7.5 mg/kg/injection, schedule: Q01DX005 (ip), vehicle: Klucel (hydroxypropylcellulose) (HPC)", "value": "175 % of control"}, {"measurement": "T/C", "setting": "dose: 10.0 mg/kg/injection, schedule: Q01DX005 (ip), vehicle: saline", "value": "154 % of control"}, {"measurement": "T/C", "setting": "dose: 15.0 mg/kg/injection, schedule: Q01DX005 (ip), vehicle: Klucel (hydroxypropylcellulose) (HPC)", "value": "180 % of control"}, {"measurement": "T/C", "setting": "dose: 15.0 mg/kg/injection, schedule: Q01DX005 (ip), vehicle: saline", "value": "154 % of control"}, {"measurement": "T/C", "setting": "dose: 30.0 mg/kg/injection, schedule: Q01DX005 (ip), vehicle: Klucel (hydroxypropylcellulose) (HPC)", "value": "189 % of control"}]}
{"smiles": "CCOC(CN=Cc1cc(C)c2oc3ccccc3c2c1C)OCC", "values": [{"measurement": "T/C", "setting": "[1]", "value": "100 % of control"}, {"measurement": "T/C", "setting": "[2]", "value": "100 % of control"}, {"measurement": "T/C", "setting": "[3]", "value": "95 % of control"}]}
{"smiles": "O=c1ncc2ccc([N+](=O)[O-])cc2[nH]1", "values": [{"measurement": "T/C", "setting": "dose: 12.5 mg/kg/injection, schedule: Q01DX005 (ip), vehicle: Klucel (hydroxypropylcellulose) (HPC)", "value": "108 % of control and 95 % of control and 98 % of control"}, {"measurement": "T/C", "setting": "dose: 25.0 mg/kg/injection, schedule: Q01DX005 (ip), vehicle: Klucel (hydroxypropylcellulose) (HPC)", "value": "102 % of control and 94 % of control and 98 % of control"}, {"measurement": "T/C", "setting": "dose: 100.0 mg/kg/injection, schedule: Q01DX005 (ip), vehicle: Klucel (hydroxypropylcellulose) (HPC)", "value": "112 % of control"}]}
{"smiles": "COC(=O)c1cc(C(=O)OC)c2c3[nH]cnc3ncn2c1=O", "values": [{"measurement": "T/C", "setting": "[4]", "value": "98 % of control"}, {"measurement": "T/C", "setting": "[5]", "value": "100 % of control"}, {"measurement": "T/C", "setting": "dose: 400.0 mg/kg/injection, schedule: Q04DX003 (ip), vehicle: saline with Tween-80", "value": "97 % of control"}]}
{"smiles": "COc1ccc2nc3cc(Cl)ccc3c(NCCC3CCCN4CCCCC34)c2c1", "note": "(stereo unspecified)", "values": [{"measurement": "T/C", "setting": "dose: 12.5 mg/kg/injection, schedule: Q01DX005 (ip), vehicle: distilled water + Tween-80", "value": "109 % of control"}, {"measurement": "T/C", "setting": "dose: 25.0 mg/kg/injection, schedule: Q01DX005 (ip), vehicle: distilled water + Tween-80", "value": "114 % of control"}]}
{"smiles": "CC1=C2CCCCCC2(O)OC1=O", "note": "(stereo unspecified)", "values": [{"measurement": "T/C", "setting": "dose: 6.25 mg/kg/injection, schedule: Q01DX001 (ip), vehicle: saline", "value": "109 % of control"}, {"measurement": "T/C", "setting": "dose: 12.5 mg/kg/injection, schedule: Q01DX001 (ip), vehicle: saline", "value": "111 % of control"}, {"measurement": "T/C", "setting": "dose: 25.0 mg/kg/injection, schedule: Q01DX001 (ip), vehicle: saline", "value": "104 % of control and 117 % of control"}, {"measurement": "T/C", "setting": "dose: 50.0 mg/kg/injection, schedule: Q01DX001 (ip), vehicle: saline", "value": "120 % of control"}, {"measurement": "T/C", "setting": "dose: 100.0 mg/kg/injection, schedule: Q01DX001 (ip), vehicle: saline", "value": "100 % of control"}]}
{"smiles": "Cc1c(NC(=O)CCCl)c(=O)oc2c(C)c3occc(=O)c3cc12", "values": [{"measurement": "T/C", "setting": "[6]", "value": "100 % of control"}, {"measurement": "T/C", "setting": "[7]", "value": "99 % of control"}, {"measurement": "T/C", "setting": "dose: 400.0 mg/kg/injection, schedule: Q01DX001 (ip), vehicle: saline with Tween-80", "value": "90 % of control"}]}
{"smiles": "Cc1cnn(-c2ccccc2)[n+]1[O-]", "values": [{"measurement": "T/C", "setting": "dose: 50.0 mg/kg/injection, schedule: Q01DX005 (ip), vehicle: saline", "value": "99 % of control"}, {"measurement": "T/C", "setting": "dose: 100.0 mg/kg/injection, schedule: Q01DX005 (ip), vehicle: saline", "value": "96 % of control"}, {"measurement": "T/C", "setting": "dose: 200.0 mg/kg/injection, schedule: Q01DX005 (ip), vehicle: saline", "value": "102 % of control"}]}
{"smiles": "OC(Cc1cccnc1)(c1ccccc1)c1cccc2ccccc12", "note": "(stereo unspecified)", "values": [{"measurement": "T/C", "setting": "[4]", "value": "90 % of control"}, {"measurement": "T/C", "setting": "[5]", "value": "86 % of control"}]}
{"smiles": "C/C(=N\\NC(N)=Nc1ccc(Cl)cc1)c1ccc(Cl)c(Cl)c1", "values": [{"measurement": "T/C", "setting": "dose: 25.0 mg/kg/injection, schedule: Q04DX002 (ip), vehicle: saline with Tween-80", "value": "99 % of control"}, {"measurement": "T/C", "setting": "dose: 50.0 mg/kg/injection, schedule: Q04DX002 (ip), vehicle: saline with Tween-80", "value": "102 % of control"}, {"measurement": "T/C", "setting": "dose: 100.0 mg/kg/injection, schedule: Q04DX002 (ip), vehicle: saline with Tween-80", "value": "102 % of control"}]}
{"smiles": "O=C(c1cccnc1)N(Cc1ccccc1)C(=O)c1cccnc1", "values": [{"measurement": "T/C", "setting": "dose: 25.0 mg/kg/injection, schedule: Q01DX001 (ip), vehicle: saline with Tween-80", "value": "99 % of control"}, {"measurement": "T/C", "setting": "dose: 50.0 mg/kg/injection, schedule: Q01DX001 (ip), vehicle: saline with Tween-80", "value": "106 % of control"}, {"measurement": "T/C", "setting": "[6]", "value": "100 % of control"}, {"measurement": "T/C", "setting": "[7]", "value": "106 % of control"}]}
{"smiles": "CCOC(=O)N1CCN(CCCCCOc2ccccc2C2CCCCC2)CC1", "values": [{"measurement": "T/C", "setting": "[1]", "value": "110 % of control"}, {"measurement": "T/C", "setting": "[2]", "value": "108 % of control"}, {"measurement": "T/C", "setting": "[3]", "value": "124 % of control"}, {"measurement": "T/C", "setting": "dose: 400.0 mg/kg/injection, schedule: Q01DX009 (ip), vehicle: saline with Tween-80", "value": "115 % of control"}]}
